The GI50 is the concentration that inhibits growth by half.

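Test compounds were applied to cells in 96-well plates for 48 hours at 5 doses. GI50 marks 50% less growth.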 Activity calls are given as the source filed them. Cut-off read from the data, not from the text of the source: active = GI50 up to about 1.1 µM and inactive = higher.

Data on ten compounds can be found in ChEMBL document CHEMBL1201862, “PubChem BioAssay data set” (2004).

Test systems include CCRF-CEM; MDA-MB-231; OVCAR-4; DU-145; NCI-H460; SF-539; RXF 393; SW-620; KM12; PC-3; U-251; SNB-75; TK-10; MDA-MB-435; 786-0; OVCAR-8; ACHN; SK-OV-3; SF-295; SNB-19.
Holding throughout (assay): DTP human tumour cell line panel, 48 h

For the compound `CC[C@H](C)[C@H]1NC(=O)[C@@H](NC(=O)[C@@H](CC(C)C)N(C)CC2CCCN2C(=O)C(C)=O)[C@@H](C)OC(=O)[C@H](Cc2ccc(OC)cc2)N(C)C(=O)C2CCCN2C(=O)[C@H](CC(C)C)NC(=O)[C@@H](C)C(=O)[C@H](C(C)C)OC(=O)C[C@@H]1O` (stereo partly specified), the GI50 is < 0.0025 µM (active) in the assay with CCRF-CEM; 0.00432 µM (active) in the assay with MDA-MB-231; < 0.0025 µM (active) with OVCAR-4; < 0.0025 µM (active) with DU-145; 0.00381 µM (active) in the assay on NCI-H460; < 0.0025 µM (active) in the assay on SF-539. In addition, the GI50 is < 0.0025 µM (active) with RXF 393; 0.00409 µM (active) in the assay with SW-620; 0.00302 µM (active) in the assay on KM12; 0.00406 µM (active) in the assay with PC-3; < 0.0025 µM (active) in the assay with U-251; 0.00317 µM (active) in the assay with SNB-75. Also, the GI50 was 0.00853 µM (active) in the assay on TK-10; 0.00371 µM (active) in the assay with MDA-MB-435; 0.00494 µM (active) with 786-0; 0.00372 µM (active) in the assay on OVCAR-8; 0.00444 µM (active) in the assay with ACHN; 0.00376 µM (active) with SK-OV-3. The GI50 with SF-295 is 0.00371 µM (active); in the assay on SNB-19, 0.00356 µM (active).
Regarding `COc1ccc(C2C(C#N)=C(S)N(C3OC(COC(C)=O)C(OC(C)=O)C(OC(C)=O)C3OC(C)=O)C(C)=C2C(C)=O)cc1` (stereo unspecified), the GI50 in the assay with CCRF-CEM is 30.3 µM (inactive); in the assay with MDA-MB-231 it was > 100 µM (inactive); with OVCAR-4, 53 µM (inactive); in the assay on DU-145 it was > 100 µM (inactive); in the assay on NCI-H460 it was 83.4 µM (inactive); in the assay with SF-539 it was > 100 µM (inactive). Besides, the GI50 in the assay on RXF 393 is 40.5 µM (inactive); in the assay on SW-620 it was 42.3 µM (inactive); with KM12, > 100 µM (inactive); in the assay with PC-3, 31.3 µM (inactive); in the assay on U-251, > 100 µM (inactive); in the assay with SNB-75, 26.4 µM (inactive). The GI50 is > 100 µM (inactive) with TK-10; 66.4 µM (inactive) in the assay with MDA-MB-435; > 100 µM (inactive) in the assay on 786-0; 77.1 µM (inactive) with ACHN; > 100 µM (inactive) in the assay on SK-OV-3; > 100 µM (inactive) in the assay with SF-295. Further, the GI50 with SNB-19 was > 100 µM (inactive).
As for `O=C(/C=C/c1ccc(O)cc1)c1ccc2c(c1)OCO2`, the GI50 in the assay on CCRF-CEM was 1.21 µM (inactive); with MDA-MB-231, 17.5 µM (inactive); in the assay with OVCAR-4 it was 21.1 µM (inactive); with DU-145, 33.4 µM (inactive); in the assay with NCI-H460 it was 26.2 µM (inactive); with SF-539 it was 13.8 µM (inactive). Also, the GI50 in the assay with RXF 393 was 19.3 µM (inactive); in the assay on SW-620, 19.1 µM (inactive); with KM12, 17 µM (inactive); in the assay on PC-3, 24.6 µM (inactive); in the assay on U-251, 18.4 µM (inactive); in the assay on SNB-75, 12.4 µM (inactive). Also, the GI50 was 22.8 µM (inactive) in the assay on MDA-MB-435; 18 µM (inactive) in the assay with 786-0; 15.2 µM (inactive) with OVCAR-8; 21.9 µM (inactive) in the assay with ACHN; 26.1 µM (inactive) in the assay with SK-OV-3; 21.8 µM (inactive) with SF-295. The GI50 with SNB-19 is 17.1 µM (inactive).
For `N#CC(C#N)=CNC(N)=S`, the GI50 in the assay on CCRF-CEM, in the assay on MDA-MB-231, in the assay with OVCAR-4, in the assay with DU-145, in the assay with NCI-H460 and in the assay with SF-539 was > 100 µM (inactive) in each case. In addition, the GI50 in the assay with RXF 393, with SW-620, in the assay with KM12, with PC-3, with U-251 and in the assay with SNB-75 was > 100 µM (inactive) in each case. The GI50 in the assay on MDA-MB-435, in the assay with 786-0, in the assay with OVCAR-8, in the assay on ACHN, in the assay on SK-OV-3 and with SF-295 was > 100 µM (inactive) each time. The GI50 in the assay on SNB-19 was > 100 µM (inactive).
With `COc1ccc(NC(=O)CC(=O)N2N=C(N3CCCCC3)CC2c2ccccc2)cc1` (stereo unspecified), the GI50 with CCRF-CEM, in the assay with MDA-MB-231, in the assay on OVCAR-4, in the assay on DU-145, with NCI-H460 and with SF-539 was > 100 µM (inactive) each time. The GI50 in the assay on RXF 393, with SW-620, in the assay on KM12, with PC-3, in the assay with U-251 and in the assay on SNB-75 was > 100 µM (inactive) in each case. Moreover, the GI50 in the assay on TK-10, in the assay on MDA-MB-435, in the assay with 786-0, with OVCAR-8, in the assay on ACHN and in the assay on SF-295 was > 100 µM (inactive) in each case. For the same compound, the GI50 in the assay on SNB-19 was > 100 µM (inactive).
Consider `CCOC(=O)/C(C#N)=C/c1ccnc2ccccc12`, for which the GI50 in the assay on MDA-MB-231 is 83.9 µM (inactive); with OVCAR-4, > 100 µM (inactive); in the assay on DU-145 it was > 100 µM (inactive); with NCI-H460, > 100 µM (inactive); with SF-539, 20.2 µM (inactive); in the assay on RXF 393 it was > 100 µM (inactive). For the same compound, the GI50 in the assay on SW-620 was 9.79 µM (inactive); in the assay with KM12 it was 32.5 µM (inactive); in the assay on PC-3, 36.9 µM (inactive); in the assay on U-251 it was > 100 µM (inactive); with SNB-75 it was > 100 µM (inactive); with TK-10, > 100 µM (inactive). Moreover, the GI50 in the assay with MDA-MB-435 is 37.2 µM (inactive); in the assay with 786-0, 61.9 µM (inactive); in the assay with OVCAR-8 it was 10.4 µM (inactive); with ACHN, > 100 µM (inactive); with SK-OV-3, > 100 µM (inactive); with SF-295 it was 93.1 µM (inactive). In the assay with SNB-19, the GI50 was 81.7 µM (inactive).
For the compound `NS(=O)(=O)c1ccc(NC(=S)NC=C2C(=O)c3ccccc3C2=O)cc1`, the GI50 with CCRF-CEM is > 100 µM (inactive); in the assay with MDA-MB-231 it was 23.7 µM (inactive); with OVCAR-4, 49 µM (inactive); in the assay on DU-145, 94 µM (inactive); in the assay on NCI-H460, > 100 µM (inactive); in the assay with SF-539 it was 35.5 µM (inactive). Moreover, the GI50 in the assay on RXF 393 was 43.6 µM (inactive); in the assay on SW-620 it was > 100 µM (inactive); with KM12 it was > 100 µM (inactive); with PC-3, > 100 µM (inactive); in the assay on U-251, 76.2 µM (inactive); in the assay with SNB-75, 19.4 µM (inactive). The GI50 was 46.6 µM (inactive) in the assay with TK-10; 91.4 µM (inactive) in the assay on MDA-MB-435; > 100 µM (inactive) in the assay on 786-0; > 100 µM (inactive) in the assay on ACHN; > 100 µM (inactive) with SK-OV-3; > 100 µM (inactive) in the assay on SF-295. For the same compound, the GI50 in the assay on SNB-19 was > 100 µM (inactive).
As for `CCOC(=O)C(Cc1ccc2c(c1)CCC2)Cc1ccc2c(c1)CCC2`, the GI50 is 27.1 µM (inactive) with CCRF-CEM; > 100 µM (inactive) with MDA-MB-231; > 100 µM (inactive) with OVCAR-4; > 100 µM (inactive) in the assay with DU-145; > 100 µM (inactive) in the assay with NCI-H460; > 100 µM (inactive) with SF-539. Besides, the GI50 in the assay with RXF 393 is > 100 µM (inactive); in the assay with SW-620 it was > 100 µM (inactive); with PC-3, 38.9 µM (inactive); in the assay on U-251, 51.4 µM (inactive); with SNB-75 it was > 100 µM (inactive); in the assay on TK-10 it was > 100 µM (inactive). The GI50 in the assay with MDA-MB-435 was 42 µM (inactive); in the assay on 786-0, > 100 µM (inactive); in the assay with OVCAR-8 it was > 100 µM (inactive); in the assay with ACHN, > 100 µM (inactive); in the assay with SK-OV-3, > 100 µM (inactive); in the assay with SF-295, 89.9 µM (inactive). For the same compound, the GI50 in the assay on SNB-19 was > 100 µM (inactive).
`CO[C@@H]1O[C@H](C(=O)c2ccccc2)[C@H]2OC(C)(C)O[C@@H]12`: the GI50 with CCRF-CEM was 49.7 µM (inactive); in the assay on MDA-MB-231, 79.3 µM (inactive); in the assay with OVCAR-4, > 100 µM (inactive); in the assay with DU-145 it was 54.5 µM (inactive); in the assay with NCI-H460, 38.1 µM (inactive); with SF-539, > 100 µM (inactive). In addition, the GI50 was > 100 µM (inactive) in the assay with RXF 393; 56.8 µM (inactive) with SW-620; > 100 µM (inactive) in the assay with KM12; > 100 µM (inactive) in the assay on PC-3; > 100 µM (inactive) in the assay with U-251; 96.8 µM (inactive) with SNB-75. In addition, the GI50 is > 100 µM (inactive) in the assay with TK-10; 85.3 µM (inactive) with MDA-MB-435; > 100 µM (inactive) in the assay on 786-0; > 100 µM (inactive) in the assay on OVCAR-8; > 100 µM (inactive) with SK-OV-3; > 100 µM (inactive) in the assay on SF-295. The GI50 in the assay on SNB-19 was > 100 µM (inactive).
For `Cc1ccc(/N=N/C(=N/NC(=O)c2ccccc2)c2ccc(N(CCC#N)CCC#N)cc2C)cc1`, the GI50 in the assay on CCRF-CEM is 30.3 µM (inactive); in the assay with MDA-MB-231 it was 31.4 µM (inactive); in the assay with OVCAR-4 it was 99.8 µM (inactive); in the assay on DU-145, 43.2 µM (inactive); in the assay on NCI-H460, 20.3 µM (inactive); with SF-539, 19.3 µM (inactive). Further, the GI50 is 22.8 µM (inactive) in the assay with RXF 393; 29.3 µM (inactive) in the assay with KM12; 26.7 µM (inactive) with PC-3; 52.6 µM (inactive) in the assay on U-251; 32.7 µM (inactive) in the assay on SNB-75; > 100 µM (inactive) with TK-10. For the same compound, the GI50 was 4.97 µM (inactive) in the assay on MDA-MB-435; 33.3 µM (inactive) with 786-0; 39.4 µM (inactive) with OVCAR-8; > 100 µM (inactive) in the assay with ACHN; 60.3 µM (inactive) in the assay with SK-OV-3; 21.7 µM (inactive) with SF-295. In addition, the GI50 with SNB-19 is 35 µM (inactive).
